Results: patent US20160271139A1, “METHOD FOR NON-TOXIC TREATMENT FOR DRUG WITHDRAWAL” (DEMERX, INC., priority 2013, published 2016)

Experiment: Human pharmacokinetic study, single oral dose, serum levels (Example 6)
Type: in vivo
Conditions: human serum, fasting
Description: In double blind studies, fasting healthy volunteers (6 per cohort) were treated once orally with a tablet of noribogaine HCl. In escalating cohorts, the volunteers received 3 mg, 10 mg, 30 mg or 60 mg noribogaine.

[1] = single oral dose 30 mg free base

**Q.** For `CC[C@H]1C[C@H]2C[C@H]3c4[nH]c5ccc(O)cc5c4CCN(C2)[C@@H]13` [noribogaine], which “time after administration at which mean Cmax was observed” value (from here on “time after administration”) (single oral dose 3 mg free base) is on record?
**A.** 1.9 h

**Q.** And the “time after administration” value (single oral dose 10 mg free base)?
**A.** 2.9 h

**Q.** What about the “mean Cmax” value [1] of the same molecule?
**A.** 55.0 ng/mL

**Q.** And the “time after administration” value [1]?
**A.** 1.75 h

**Q.** And the “time after administration” value (single oral dose 60 mg free base)?
**A.** 1.75 h
